Experimental data as given in US20210069275A1, “TRADITIONAL CHINESE MEDICINE COMPOSITION FOR IMPROVING BONE HEALTH AND PREPARATION AND USES THEREOF” (Chenland Nutritionals Inc., priority 2020, published 2021).
Marks after values point to notes of the source that are not given here.

Legend:
Type in all cases: in vivo, rat
[1] = test system: osteoporosis model rats; test: Bone density parameters of right femur in osteoporosis model rats; conditions: bilateral ovariectomy female SD rats, intragastric once a day, 8 weeks, femoral metaphysis, 10 mg/kg
Method: (§1) Samples: the traditional Chinese medicine (TCM) composition prepared in Example 1, a positive drug (Estradiol Valerate) and a competing drug (Caltrate).
(§2) Female SD rats were randomly divided into sham operation group, model group, positive control group (estradiol valerate), competing drug group (Caltrate), high dose TCM composition (prepared in Example 1) group and low dose TC′M composition (prepared in Example 1) group, and 8 in each group.
(§3) Female SD rats were treated by bilateral ovariectomy to establish osteoporosis model rats.
(§4) The osteoporosis model rats were subjected to intragastric administration once a day and the administration cycle lasted for 8 weeks.
(§5) After 8 weeks, the rats were sacrificed, and blood was collected from the abdominal aorta and subjected to standing for 1 hour. Then the blood sample was centrifuged to collect serum, which was detected for the bone metabolic biochemical indicators, including bone glaprotein (BGP), bone specific alkaline phosphatase (BALP), carboxyterminal propeptide of type I procollagen (PICP) and N-telopeptides of type I collagen (NTX); estrogen indicators, including serum estradiol E2 and follicle stimulating hormone (FSH); and blood biochemical indexes, including serum phosphorus and serum calcium. Moreover, the complete bilateral femurs were collected, on which the muscle tissues were, completely removed. The left femur was used for femoral mechanical testing, and the right femur was tested for related parameters such as bone density. The above experimental data was used to evaluate the efficacy of the TCM composition of the disclosure.
(§6) The dosage of the TCM composition was determined based on the recommended crude drug dosage in the pharmacopoeia, and 1 g of extract was obtained after the extraction.
(§7) Positive control group: 0.1 g/day for human.
(§8) Competing drug group (Caltrate): one tablet (1 g)/day and 600 mg of calcium/tablet.
(§9) High dose TCM composition group: 1 g/day for human; low dose TCM composition group: 0.5 g/day for human.
(§10) The dosage for rats was calculated as follows: • dosage for rat (daily dose for human/60)*6;

[2] = test system: osteoporosis model rats; test: Bone metabolic biochemical indicators (BGP, BALP, PICP, NTX) by ELISA in osteoporosis model rats; conditions: bilateral ovariectomy female SD rats, intragastric once a day, 8 weeks, serum, 10 mg/kg
Method: as §1, §2, §3, §4, §5, §6, §7, §8, §9, §10

[3] = test system: osteoporosis model rats; test: Femoral mechanical testing (left femur) in osteoporosis model rats; conditions: bilateral ovariectomy female SD rats, intragastric once a day, 8 weeks, 10 mg/kg
Method: as §1, §2, §3, §4
(§11) After 8 weeks, the rats were sacrificed, and blood was collected from the abdominal aorta and subjected to standing for 1 hour. Then the blood sample was centrifuged to collect serum, which was detected for the bone metabolic biochemical indicators, including bone glaprotein (BGP), bone specific alkaline phosphatase (BALP), carboxyterminal propeptide of type I procollagen (PICP) and N-telopeptides of type I collagen (NTX); estrogen indicators, including serum estradiol E2 and follicle stimulating hormone (FSH); and blood biochemical indexes, including serum phosphorus and serum calcium. […]
as §10

[4] = test system: osteoporosis model rats; test: Serum estrogen indicators (E2, FSH) by ELISA in osteoporosis model rats; conditions: bilateral ovariectomy female SD rats, intragastric once a day, 8 weeks, 10 mg/kg
Method: as §1, §2, §3, §4, §11, §10

[5] = test system: osteoporosis model rats; test: Serum biochemical indexes (phosphorus, calcium) in osteoporosis model rats
Method: as §1, §2, §3, §4, §5, §6, §7, §8, §9, §10

[6] = bilateral ovariectomy female SD rats, intragastric once a day, 8 weeks, 10 mg/kg

CCCCC(=O)O[C@H]1CC[C@H]2[C@@H]3CCc4cc(O)ccc4[C@H]3CC[C@]12C [Positive control, Estradiol Valerate]
BMD (bone mineral density) [1]: 0.198 ± 0.051 g/cm^2 | BV/TV (bone volume fraction) [1]: 16.863 ± 5.237 % | Tb. N (trabecular number) [1]: 2.392 ± 0.809* 1/mm | Tb. Sp (trabecular separation/spacing) [1]: 455.6 ± 182.901 μm | BALP (bone specific alkaline phosphatase) [2]: 764.2 ± 123.81 pg/mL | BGP (bone glaprotein) [2]: 9.93 ± 2.23 ng/mL | NTX (N-telopeptides of type I collagen) [2]: 26.92 ± 5.68 ng/mL | PICP (carboxyterminal propeptide of type I procollagen) [2]: 739.33 ± 175.34 ng/mL | Load (maximum load of femur) [3]: 109.67 ± 26.78 N | E2 (serum estradiol) [4]: 32.45 ± 10.24 pg/mL | FSH [4]: 96.55 ± 11.84 ng/mL | Ca (serum calcium) [5, 6]: 2.33 ± 0.13 mmol/L | P (serum phosphorus) [5, 6]: 3.1 ± 0.53 mmol/L | serum phosphorus content compared to the model group and the sham-operation group ([5]; positive control group, 8 weeks' administration, P<0.05): significantly higher
